According to the supplement of paper PMC5412046:
Where a name gives a salt, the structure may show the parent alone.

These compounds were tested on SB.msgc-1 (assay: AC50 for growth inhibition (viability) (log10 M); higher = less potent). Conditions: SB.msgc-1 (sporadic gastric cancer).
How it was run: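 Gastric cancer cells from hereditary or sporadic patients, 500 per 1536 well, were exposed to compound for 48 h over 11 threefold dilutions from a final 46 μM. CellTiter-Glo luminescence, read on a ViewLux, measured viability, which was normalised to DMSO. The log half-maximal activity concentration came from four-parameter fits, and only high-quality curve classes were kept.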

Point of comparison: O=C(N[C@@H](c1ccccc1)[C@@H]1CCCCN1)c1cccc(C(F)(F)F)c1Cl, “AC50 for growth inhibition (log10 M)” value -5.88. Against it:
- O=C(O)C(=O)c1cn(Cc2ccccc2)c2ccc(-c3ccc(OC(F)(F)F)cc3)cc12 [Tiplasinin] — higher, -5.13
- Cc1nnc(N[S+](=O)([O-])c2ccc(N)cc2)s1 [Sulfamethizole] — higher, -5.43
- CC(C)[C@H](CO)Nc1nc(Nc2cccc(Cl)c2)c2ncn(C(C)C)c2n1 [Purvalanol A] — higher, -4.68
- C[C@@H](Oc1cc(-n2cnc3ccc(CN4CCN(C)CC4)cc32)sc1C(N)=O)c1ccccc1C(F)(F)F — lower, -7.13
- Clc1ccc(CCC(Cn2ccnc2)Sc2c(Cl)cccc2Cl)cc1 (stereo not drawn) [Butoconazole nitrate] — higher, -4.68
- NC(=O)c1cccc(-c2cc(Nc3ccc(OC(F)(F)F)cc3)ncn2)c1 [GNF 2] — higher, -4.73
- O=C(O)c1ccc(-c2c[nH]c3ncc(-c4ccccc4)cc23)cc1C1CCCC1 — lower, -6.28
- Cc1nc(N)sc1-c1ccnc(Nc2ccc(N3CCOCC3)cc2)n1 [CYC-116] — higher, -4.63
- CN1C(=O)C(=C\C2=C1N=C(NC3=CC=CC(=C3)C(O)=O)N=C2)/C4=C(Cl)C=CC=C4Cl — within 0.2 log units, -5.78
- Nc1nc(Nc2ccc([S+](N)(=O)[O-])cc2)nn1C(=O)c1c(F)cccc1F — higher, -5.33
- CCOP(=O)(OCC)C(C)NC(=O)N(CCCl)N=O (stereo not drawn) [Fotemustine] — higher, -5.13
- Cc1cnc(C(=O)NCCc2ccc([S+](=O)([O-])NC(=O)NC3CCCCC3)cc2)cn1 [Glipizide] — higher, -4.78
- COC(=O)Nc1nc2cc(C(=O)c3cccs3)ccc2[nH]1 [Nocodazole] — lower, -7.98
- COC1=CC=CC=C1C2=CC=CC(=C2)C/3=C(O)/C4=CC(=C(Cl)C=C4NC3=O)C#N [FASN MRK] — higher, -4.37
- CC[C@]1(O)C[C@@H]2CN(CCc3c([nH]c4ccccc34)[C@@](C(=O)OC)(c3cc4c(cc3OC)N(C)[C@H]3[C@@](O)(C(N)=O)[C@H](O)[C@]5(CC)C=CCN6CC[C@]43[C@@H]65)C2)C1 [Vindesine sulfate] — lower, -8.68
- COc1cc(NCc2ccc3nc(N)nc(N)c3c2C)cc(OC)c1OC [Trimetrexate] — within 0.2 log units, -5.83
- C[S+]([O-])c1ccc(-c2nc(-c3ccc(F)cc3)c(-c3ccncc3)[nH]2)cc1 (stereo not drawn) — higher, -4.62
- O=C1NCCc2[nH]c(-c3ccncc3)cc21 — higher, -5.63
- C[S+](=O)([O-])CCNCc1ccc(-c2ccc3ncnc(Nc4ccc(OCc5cccc(F)c5)c(Cl)c4)c3c2)o1 [Lapatinib] — lower, -7.93
- Fc1ccc(CNc2ncnc3ccc(F)cc23)cc1 [Spautin-1] — higher, -5.48
- O=C(O)c1cccc(-c2noc(-c3ccccc3F)n2)c1 [PTC-124] — higher, -4.83
- CN(C)CCN(C)C(=O)c1ccc(NC(=O)Nc2ccc(-c3nc(N4CCOCC4)c4ccn(CC(F)(F)F)c4n3)cc2)cc1 — higher, -5.18
- C[C@@H]1C/C=C/C=C/C=C/C=C/[C@@H](O[C@@H]2O[C@H](C)[C@@H](O)[C@H](N)[C@@H]2O)C[C@@H]2O[C@](O)(C[C@@H](O)C[C@@H]3O[C@H]3/C=C/C(=O)O1)C[C@H](O)[C@H]2C(=O)O [Natamycin] — higher, -5.23
- NCC1CCC(C(=O)O)CC1 (stereo not drawn) [Tranexamic acid] — higher, -5.18
- COc1cc2c(cc1OC)CC(=O)N(CCCN(C)C[C@H]1Cc3cc(OC)c(OC)cc31)CC2.Cl [Ivabradine hydrochloride] — higher, -4.58
- C=C(C)[C@@H]1CC[C@]2(C(=O)O)CC[C@]3(C)[C@H](CC[C@@H]4[C@@]5(C)CC[C@H](O)C(C)(C)[C@@H]5CC[C@]43C)[C@@H]12 [Betulinic acid] — higher, -4.83
- O=C(CS(=O)Cc1ccco1)NC/C=C\COc1cc(CN2CCCCC2)ccn1 (stereo not drawn) [Lafutidine] — higher, -5.08
- CC(C(=O)O)c1cccc(C(=O)c2ccccc2)c1 (stereo not drawn) [Ketoprofen] — higher, -5.03
- CC[C@]12\C=C/CN3CC[C@]4([C@@H](N(C)C5=CC(=C(C=C45)[C@]6(C[C@H]7C[C@H](CN(C7)CC8=C6[NH]C9=C8C=CC=C9)C(C)(F)F)C(=O)OC)OC)[C@](O)([C@@H]1OC(C)=O)C(=O)OC)[C@H]23 [Vinflunine] — lower, -7.83
- Cc1nc2cnc3ccc(C#Cc4cccnc4)cc3c2n1-c1ccc(C(C)(C)C#N)cc1 [BAG-956] — within 0.2 log units, -5.93
- COc1cc(C)c(/C=C/C(C)=C/C=C/C(C)=C/C(=O)O)c(C)c1C [Acitretin] — higher, -4.73
- Cn1cnc2c(F)c(Nc3ccc(Br)cc3F)c(C(=O)NOCCO)cc21 [ARRY-162] — lower, -6.63
- Nc1cccc([S+](=O)([O-])N2CCCN([S+](=O)([O-])c3ccc4c(c3)OCCO4)CC2)c1 — higher, -4.88
- C[C@H]1CC2C3CCC/4=C/C(=O)/C=C\[C@]4(C)[C@@]3(F)[C@@H](O)C[C@]2(C)[C@@]1(O)C(=O)CO (stereo partly drawn) [Betamethasone] — higher, -4.88
- OC(=O)C1=CC=C(NC2=NC3=C(C\N=C(/C4=CC(=CC=C34)Cl)C5=C(F)C=CC=C5F)C=N2)C=C1 [MLN-8054] — higher, -4.78
- C[C@H](CCC(=O)O)[C@H]1CC[C@H]2[C@@H]3[C@@H](O)C[C@@H]4C[C@H](O)CC[C@]4(C)[C@H]3CC[C@]12C [Ursodiol] — higher, -5.43
- CCc1cc(/C(C)=N/OCc2ccc(C3CCCCC3)c(C(F)(F)F)c2)ccc1CN1CC(C(=O)O)C1 [BAF-312] — higher, -4.73
- CNC(=O)N1\N=C(\C2=CC=C(N)C=C2)C3=CC4=C(OCO4)C=C3CC1C (stereo not drawn) — higher, -5.08
- O=C/1\C=C(/OC(=C1)/C2=C3SC4=C(SC3=CC=C2)C=CC=C4)N5CCOCC5 [KU-0064] — higher, -4.63
- Cc1c(-c2cccc3c(CCCOc4cccc5ccccc45)c(C(=O)O)n(Cc4cccnc4)c23)c(COc2ccc(N3CCN([S+](=O)([O-])N(C)C)CC3)cc2)nn1C — higher, -4.63
- COc1cc([C@@H]2c3cc4c(cc3[C@@H](O[C@@H]3O[C@@H]5CO[C@@H](C)O[C@H]5[C@H](O)[C@H]3O)[C@H]3COC(=O)[C@H]23)OCO4)cc(OC)c1O [Etoposide] — higher, -5.33
- Fc1ccc(Cl)cc1-c1nc(Nc2ccncc2)c2nccnc2n1 [SD-208] — higher, -4.93
- CC[S+](=O)([O-])c1cccc(-c2cc(C(=O)NC3CCN(C)CC3)c(C)c3[nH]c4ncc(C)cc4c23)c1 [TAK-901] — higher, -5.33
- CC1=NN(c2ccc(C)c(C)c2)C(=O)/C1=N/Nc1cccc(-c2cccc(C(=O)O)c2)c1O [Eltrombopag olamine] — higher, -4.83
- CCCCCNC(=O)N1CCC(CN(Cc2ccc(Cl)cc2)Cc2ccc([N+](=O)[O-])s2)C1 (stereo not drawn) [SR9011] — higher, -4.73
- C[C@@H]1CC[C@H]2[C@@H](C)C(=O)O[C@@H]3O[C@@]4(C)CC[C@@H]1[C@]32OO4 [Artemisinin] — lower, -6.93
- Cc1ncc(-c2ccnc(Nc3ccc([S+](C)(=O)[O-])cc3)n2)n1C(C)C [AZD-5438] — within 0.2 log units, -5.78
- CO[C@@H](C(=O)N1Cc2[nH]nc(NC(=O)c3ccc(N4CCN(C)CC4)cc3)c2C1)c1ccccc1 [Danusertib] — higher, -5.53
- O=C(NOC[C@H](O)CO)c1ccc(F)c(F)c1Nc1ccc(I)cc1F — lower, -6.33
- CO[C@H]1O[C@@H]2O[C@@]3(C)CC[C@H]4[C@H](C)CC[C@@H]([C@H]1C)[C@@]24OO3 [Artemether] — within 0.2 log units, -5.98
- CCCCc1ccc2[nH]c(NC(=O)OC)nc2c1 [Parbendazole] — lower, -6.83
- O=C(O)CCC1CCC(c2cc(F)ccc2F)([S+](=O)([O-])c2ccc(Cl)cc2)CC1 (stereo not drawn) [MK-0752] — higher, -4.98
- COc1ccc(C(=O)N2CCCC2=O)cc1 [Aniracetam] — higher, -4.68
- CNC1[C@@H](O)C(O[C@@H]2C(O)C(O[C@H]3O[C@H]([C@@H](C)NC)CC[C@H]3N)[C@@H](N)C[C@H]2N)OC[C@]1(C)O (stereo partly drawn) [Gentamycin sulfate] — higher, -4.73
- O=C(Nc1cccnc1)N1CCC(Cc2cccc(Oc3ccc(C(F)(F)F)cn3)c2)CC1 [PF-3845] — higher, -4.78
- CCC[C@H](Nc1nc(-c2ccc(NC(=O)NCC)c(OC)c2)ncc1C)c1cccnc1 [Lexibulin hydrochloride] — lower, -7.83
- CC1=CC=C2N=C(NC(=O)CS\C3=N\C4=C(\SCC4)C(=O)N3C5=CC=CC=C5)SC2=C1 [IWP-2] — higher, -5.18
- COC(=O)CCC1=C(C)C2=CC3=NC(=CC4=C(C)C(=C([NH]4)C=C\5N=C(C=C1[NH]2)\C(=C5C)CCC(O)=O)C=C)\C6=C\C=C(/[C@@H](C(=O)OC)[C@@]36C)C(=O)OC [Verteporfin] — lower, -7.03
- C[C@@]1(C(=O)Nc2ccc(F)nc2)CCCN1c1nc(Nc2cc(C3CC3)[nH]n2)c2cccn2n1 — higher, -4.73
- COc1ccc(COc2cc3oc(=O)c4cc(C(C)O)ccc4c3cc2OC)cc1 (stereo not drawn) — higher, -4.63
- O=C(O)c1ccc(O)c2ncc(N3CCOCC3)cc12 — higher, -4.78
- C/C=C/C[C@@H](C)C(=O)[C@H]1C(=O)N[C@@H](C(C)C)C(=O)N(C)CC(=O)N(C)[C@@H](CC(C)C)C(=O)N[C@@H](C(C)C)C(=O)N(C)[C@@H](CC(C)C)C(=O)N[C@@H](C)C(=O)N[C@H](C)C(=O)N(C)[C@@H](CC(C)C)C(=O)N(C)[C@@H](CC(C)C)C(=O)N(C)[C@@H](C(C)C)C(=O)N1C [Valspodar] — higher, -5.08
